Relative viability data for 1 cell line are collected here from the supplement of paper PMC10307832.

Common to all, as to assay: relative viability (nuclei count vs DMSO), 5 days (fraction); higher = more cells survive
Compound in the assay “Carfilzomib + Navitoclax”: CC(C)C[C@H](NC(=O)[C@H](CCc1ccccc1)NC(=O)CN1CCOCC1)C(=O)N[C@@H](Cc1ccccc1)C(=O)N[C@@H](CC(C)C)C(=O)[C@@]1(C)CO1 [Carfilzomib] + CC1(C)CCC(c2ccc(Cl)cc2)=C(CN2CCN(c3ccc(C(=O)NS(=O)(=O)c4ccc(N[C@H](CCN5CCOCC5)CSc5ccccc5)c(S(=O)(=O)C(F)(F)F)c4)cc3)CC2)C1 [Navitoclax] (partner 0.5 µM)
Put shortly: (§1)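 The day after seeding in 1536-well plates, lung cancer cell lines were treated by pin tool with a single drug, or with a fixed anchor-drug dose together with five library-drug doses (not always all listed) in √10 steps. After 5 days, a combined fix-and-stain solution (final 0.05% Triton X-100, 1% formaldehyde, 1 ug/ml Hoechst) was added. Nuclei counted on 4× images gave relative viability as treated counts over vehicle counts, reported as the median of duplicate plates.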

Compound in the assay “Carfilzomib + Alpelisib”: CC(C)C[C@H](NC(=O)[C@H](CCc1ccccc1)NC(=O)CN1CCOCC1)C(=O)N[C@@H](Cc1ccccc1)C(=O)N[C@@H](CC(C)C)C(=O)[C@@]1(C)CO1 [Carfilzomib] + Cc1nc(NC(=O)N2CCC[C@H]2C(N)=O)sc1-c1ccnc(C(C)(C)C(F)(F)F)c1 [Alpelisib] (partner 2 µM)
The method in brief: as §1

Compound in the assay “Crizotinib + Tozasertib”: C[C@@H](Oc1cc(-c2cnn(C3CCNCC3)c2)cnc1N)c1c(Cl)ccc(F)c1Cl [Crizotinib] + Cc1cc(Nc2cc(N3CCN(C)CC3)nc(Sc3ccc(NC(=O)C4CC4)cc3)n2)n[nH]1 [Tozasertib] (partner 0.1 µM)
Put shortly:
as §1

Compound in the assay “Olaparib + Linsitinib”: O=C(c1cc(Cc2n[nH]c(=O)c3ccccc23)ccc1F)N1CCN(C(=O)C2CC2)CC1 [Olaparib] + C[C@]1(O)C[C@@H](c2nc(-c3ccc4ccc(-c5ccccc5)nc4c3)c3c(N)nccn32)C1 [Linsitinib] (partner 1 µM)
The method in brief:
as §1

Compound in the assay “Crizotinib + Pemetrexed”: C[C@@H](Oc1cc(-c2cnn(C3CCNCC3)c2)cnc1N)c1c(Cl)ccc(F)c1Cl [Crizotinib] + Nc1nc2[nH]cc(CCc3ccc(C(=O)N[C@@H](CCC(=O)O)C(=O)O)cc3)c2c(=O)[nH]1 [Pemetrexed] (partner 0.2 µM)
The method in brief:
as §1

Turning to NCI-H1793, the relative viability in the assay with Carfilzomib + Navitoclax (first compound 0.003162 µM) worked out at 0.497; in the assay with Carfilzomib + Navitoclax (first compound 0.01 µM), 0.52; with Carfilzomib + Navitoclax (first compound 0.03162 µM) it was 0.462; with Carfilzomib + Navitoclax (first compound 0.1 µM), 0.195; in the assay with Carfilzomib + Alpelisib (first compound 0.003162 µM), 0.767; with Carfilzomib + Alpelisib (first compound 0.01 µM), 0.804. Moreover, the relative viability in the assay with Carfilzomib + Alpelisib (first compound 0.03162 µM) was 0.68; with Carfilzomib + Alpelisib (first compound 0.1 µM) it was 0.356; in the assay with Crizotinib + Tozasertib (first compound 0.03162 µM), 0.342; in the assay with Crizotinib + Tozasertib (first compound 0.1 µM), 0.32; with Crizotinib + Tozasertib (first compound 1 µM), 0.449; with Olaparib + Linsitinib (first compound 0.08 µM) it was 0.862. The relative viability with Olaparib + Linsitinib (first compound 0.253 µM) is 0.738; in the assay with Olaparib + Linsitinib (first compound 2.53 µM) it was 0.942; in the assay with Olaparib + Linsitinib (first compound 8 µM), 0.655; in the assay with Crizotinib + Pemetrexed (first compound 0.03162 µM), 1.04; with Crizotinib + Pemetrexed (first compound 0.1 µM), 0.902; with Crizotinib + Pemetrexed (first compound 1 µM), 1.2.
